Laboratory results from ChEMBL document CHEMBL2146416 (Bioorg Med Chem, 2012).

What follows are compounds tested against 4-aminobutyrate aminotransferase, mitochondrial (Sus scrofa, UniProt P80147) (assay: Competitive inhibition of pig GABA aminotransferase using alpha-ketoglutarate as substrate by SSADH-coupled assay).
Sequence of 4-aminobutyrate aminotransferase, mitochondrial (P80147 whole entry): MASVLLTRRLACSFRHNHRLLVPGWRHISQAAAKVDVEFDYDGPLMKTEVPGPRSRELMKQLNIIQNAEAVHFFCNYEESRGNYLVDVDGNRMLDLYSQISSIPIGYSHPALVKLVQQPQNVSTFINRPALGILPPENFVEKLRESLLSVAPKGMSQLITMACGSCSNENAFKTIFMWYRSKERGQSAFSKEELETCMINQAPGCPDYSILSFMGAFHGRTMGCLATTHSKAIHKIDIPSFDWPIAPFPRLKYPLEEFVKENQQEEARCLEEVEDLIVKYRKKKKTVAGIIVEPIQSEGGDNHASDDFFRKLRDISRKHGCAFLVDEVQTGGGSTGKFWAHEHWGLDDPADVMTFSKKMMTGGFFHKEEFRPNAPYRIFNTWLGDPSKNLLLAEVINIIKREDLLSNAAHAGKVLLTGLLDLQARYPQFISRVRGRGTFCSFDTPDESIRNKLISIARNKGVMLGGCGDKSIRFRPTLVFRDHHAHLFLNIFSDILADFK

Compared with `NCc1ccc(C(=O)O)o1`, `NCc1ccc(C(=O)O)s1` is 1.8-fold higher in Ki: 1400 µM for the first, 2490 µM for the second. The first binds more tightly here.

`NCc1ccc(C(=O)O)[nH]1` and `NCc1c[nH]c(C(=O)O)c1` are within 1.5-fold of each other in Ki: 2140 µM for the first, 1590 µM for the second.

`NCc1coc(C(=O)O)c1` and `NCc1csc(C(=O)O)c1` are within 1.5-fold of each other in Ki: 1640 µM for the first, 1350 µM for the second.

`NCc1cocc1C(=O)O` and `NCc1cscc1C(=O)O` are within 1.5-fold of each other in Ki: 2270 µM for the first, 2860 µM for the second.
